The source made the active and inactive calls.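 How the source made its calls: active means IC50 against TDP2 at or below a set limit; inactive means IC50 above that limit.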
Target: Tyrosyl-DNA phosphodiesterase 2 (Homo sapiens) (UniProt O95551)
Assay: potency against TDP2 phosphodiesterase activity – biochemical, epi absorbance, IC50, dose response (AID 743297)
Settings: recombinant TDP2, T5PNP hydrolysis, absorbance 415 nm

Chain of Tyrosyl-DNA phosphodiesterase 2 (Homo sapiens) (O95551 whole entry, looked up): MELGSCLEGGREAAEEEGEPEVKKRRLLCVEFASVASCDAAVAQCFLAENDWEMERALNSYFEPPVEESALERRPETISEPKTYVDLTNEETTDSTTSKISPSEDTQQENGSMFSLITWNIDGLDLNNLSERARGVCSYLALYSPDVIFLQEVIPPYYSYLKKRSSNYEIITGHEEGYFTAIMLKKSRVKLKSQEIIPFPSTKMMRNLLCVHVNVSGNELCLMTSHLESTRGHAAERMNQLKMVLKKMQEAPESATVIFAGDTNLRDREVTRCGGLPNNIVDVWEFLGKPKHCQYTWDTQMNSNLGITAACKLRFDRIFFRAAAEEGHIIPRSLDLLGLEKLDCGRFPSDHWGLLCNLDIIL

SMILES: C[c-]1[c-](C)[c-](C)[c-](C)[c-]1C.[Fe].c1cc2nccc(N3CCCC3)[c-]2c1 (stereo unspecified)
- IC50: inactive

Reference: PubChem BioAssay AID743297 (The Scripps Research Institute Molecular Screening Center, 2014)
